Test results as given in PubChem BioAssay (NCI).
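Dose response: 5 concentrations. Exposure: 48 h. Format: 96-well plates. Endpoint: linear interpolation; highest concentration if not reached. Abbreviation: GI50, concentration required for 50% inhibition of growth. TGI: concentration producing complete growth inhibition.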

Experiments:
Experiment in all cases: NCI tumour cell line growth inhibition, 48 h; in the data active means GI50 below about 0.43 µM; inactive means the rest
[1] = test system: EKVX NSCLC
[2] = test system: NCI-H226 lung
[3] = test system: U251 CNS
[4] = test system: RXF 393 renal
[5] = test system: HOP-92 NSCLC
[6] = test system: T-47D breast
[7] = test system: NCI-H23 lung
[8] = test system: RPMI-8226 leukemia
[9] = test system: K-562 leukemia
[10] = test system: NCI-H460 lung
[11] = test system: HCC-2998 colon
[12] = test system: MOLT-4 leukemia
[13] = test system: TK-10 renal
[14] = test system: SNB-19 CNS
[15] = test system: HT29 colon
[16] = test system: OVCAR-5 ovarian
[17] = test system: MDA-MB-231 breast
[18] = test system: SK-MEL-2 melanoma
[19] = test system: SF-268 CNS
[20] = test system: SW-620 colon
[21] = test system: SK-OV-3 ovarian
[22] = test system: OVCAR-3 ovarian
[23] = test system: DU-145 prostate
[24] = test system: LOX IMVI melanoma
[25] = test system: SN12C renal
[26] = test system: NCI/ADR-RES ovarian
[27] = test system: SK-MEL-28 melanoma
[28] = test system: A549 NSCLC
[29] = test system: HOP-62 NSCLC
[30] = test system: OVCAR-4 ovarian
[31] = test system: HCT-15 colon
[32] = test system: NCI-H522 lung
[33] = test system: SF-539 CNS
[34] = test system: UACC-257 melanoma
[35] = test system: IGROV1 ovarian
[36] = test system: SF-295 CNS
[37] = test system: HCT-116 colon
[38] = test system: MCF7 breast
[39] = test system: HS 578T breast
[40] = test system: SR leukemia
[41] = test system: CCRF-CEM leukemia
[42] = test system: PC-3 prostate
[43] = test system: UACC-62 melanoma
[44] = test system: SNB-75 CNS
[45] = test system: KM12 colon
[46] = test system: HL-60(TB) leukemia
[47] = test system: A498 renal
[48] = test system: MALME-3M melanoma
[49] = test system: BT-549 breast
[50] = test system: COLO 205 colon
[51] = test system: SK-MEL-5 melanoma
[52] = test system: MDA-MB-435
[53] = test system: OVCAR-8 ovarian
[54] = test system: UO-31 renal
[55] = test system: 786-0 renal
[56] = test system: M14 melanoma
[57] = test system: ACHN renal
[58] = test system: CAKI-1 renal

CN(C)CCCOc1ccc(OCCCN(C)C)c2c1C(=O)c1ccccc1C2=O
6.77 µM: TGI [46]
5.05 µM: TGI [40]
5.18 µM: TGI [30]
8.3 µM: TGI [6]
5.54 µM: TGI [2]
18.3 µM: TGI [54]
11.6 µM: TGI [10]
6.55 µM: TGI [8]
10.6 µM: TGI [36] | TGI [38] | TGI [45]
3.34 µM: TGI [18]
6.95 µM: TGI [41]
9.02 µM: TGI [3]
3.72 µM: TGI [44]
active: GI50 [12] 0.378 µM | GI50 [15] 0.382 µM | GI50 [28] 0.388 µM | GI50 [32] 0.381 µM | GI50 [37] 0.379 µM | GI50 [38] 0.388 µM | GI50 [50] 0.379 µM
4.97 µM: TGI [49]
2.21 µM: TGI [32]
4.13 µM: TGI [5]
3.32 µM: TGI [47]
4.45 µM: TGI [27]
10.2 µM: TGI [24]
10 µM: TGI [14]
3.19 µM: TGI [52]
4.11 µM: TGI [33]
10.3 µM: TGI [37] | TGI [55]
6.42 µM: TGI [9]
6.52 µM: TGI [11]
10.5 µM: TGI [39]
> 100 µM: TGI [26]
4.24 µM: TGI [43]
11 µM: TGI [1] | TGI [20]
8.26 µM: TGI [22]
3.49 µM: TGI [56]
14.2 µM: TGI [35]
12 µM: TGI [53]
4.27 µM: TGI [7]
5.15 µM: TGI [42]
11.9 µM: TGI [25] | TGI [28]
3.56 µM: TGI [51]
4.74 µM: TGI [21]
3.58 µM: TGI [15]
11.8 µM: TGI [23]
inactive: GI50 [1] 2.3 µM | GI50 [2] 1.02 µM | GI50 [3] 0.682 µM | GI50 [4] 1.32 µM | GI50 [5] 0.572 µM | GI50 [6] 1.36 µM | GI50 [7] 1.02 µM | GI50 [8] 2.05 µM | GI50 [9] 0.706 µM | GI50 [10] 0.514 µM | GI50 [11] 1.26 µM | GI50 [13] 1.71 µM | GI50 [14] 0.941 µM | GI50 [16] 0.962 µM | GI50 [17] 0.908 µM | GI50 [18] 1.26 µM | GI50 [19] 1.32 µM | GI50 [20] 0.532 µM | GI50 [21] 0.988 µM | GI50 [22] 1.93 µM | GI50 [23] 1.14 µM | GI50 [24] 0.81 µM | GI50 [25] 0.517 µM | GI50 [26] 33.6 µM | GI50 [27] 2.01 µM | GI50 [29] 0.634 µM | GI50 [30] 1.4 µM | GI50 [31] 5.45 µM | GI50 [33] 1.57 µM | GI50 [34] 2.38 µM | GI50 [35] 1.78 µM | GI50 [36] 1.71 µM | GI50 [39] 2.05 µM | GI50 [40] 0.524 µM | GI50 [41] 0.93 µM | GI50 [42] 1.48 µM | GI50 [43] 1.89 µM | GI50 [44] 1.51 µM | GI50 [45] 0.961 µM | GI50 [46] 2.14 µM | GI50 [47] 1.38 µM | GI50 [48] 1.11 µM | GI50 [49] 1.95 µM | GI50 [51] 1.86 µM | GI50 [52] 1.59 µM | GI50 [53] 1.14 µM | GI50 [54] 2.64 µM | GI50 [55] 1.77 µM | GI50 [56] 1.6 µM
2.73 µM: TGI [48]
5.29 µM: TGI [16]
4.63 µM: TGI [17]
3.69 µM: TGI [4]
12.5 µM: TGI [13]
3.54 µM: TGI [29]
61.5 µM: TGI [31]
7.28 µM: TGI [19]
5.42 µM: TGI [34]
1.82 µM: TGI [50]
5.99 µM: TGI [12]

CCN(CC)C(=O)C[n+]1c2ccccc2n2cc(N)ccc21
> 100 µM: TGI [1] | TGI [2] | TGI [3] | TGI [4] | TGI [5] | TGI [6] | TGI [7] | TGI [8] | TGI [9] | TGI [10] | TGI [11] | TGI [57] | TGI [12] | TGI [13] | TGI [14] | TGI [15] | TGI [16] | TGI [17] | TGI [18] | TGI [19] | TGI [20] | TGI [21] | TGI [22] | TGI [23] | TGI [24] | TGI [26] | TGI [27] | TGI [28] | TGI [29] | TGI [30] | TGI [31] | TGI [33] | TGI [34] | TGI [35] | TGI [36] | TGI [37] | TGI [38] | TGI [39] | TGI [40] | TGI [41] | TGI [42] | TGI [43] | TGI [44] | TGI [45] | TGI [46] | TGI [47] | TGI [48] | TGI [49] | TGI [50] | TGI [51] | TGI [52] | TGI [53] | TGI [54] | TGI [55] | TGI [58] | TGI [56]
